Measurements: patent US20260325533A1, “CDK INHIBITOR COMPOUNDS” (ALEKSIA THERAPEUTICS, INC., priority 2023, published 2026)
Like-named read-outs stand apart in the source and are kept apart here. One block for each compound: values may come before it.

Key:
Format in all cases: biochemical
CDK6/CCND1 = CDK6/CCND1 (Homo sapiens, UniProt Q00534); assay: CDK6 homogeneous time-resolved fluorescence (HTRF) kinase assay; settings: CDK6/CCND
How it was run: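 Enzyme pre-incubated 20 min at 23 °C with compound, then reacted 60 min at 23 °C with 1 mM ATP and 50 nM ULight-4E-BP1 (Thr37/46) peptide; 1 nM enzyme, 1% DMSO. EDTA-stopped, Eu-anti-phospho antibody TR-FRET read (665 nm or 665/615 ratio); 11-point half-log titration from 10 μM gave IC50.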

CDK4/CCND3 = CDK4/CCND3 (Homo sapiens, UniProt P11802); assay: CDK4 homogeneous time-resolved fluorescence (HTRF) kinase assay; settings: CDK4/CCND
How it was run: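 CDK4/CCND3 at 1.5 nM was preincubated with compound for 20 min at 23 °C, then reacted for 60 min with 1 mM ATP and 50 nM ULight-4E-BP1 (Thr37/46) peptide. The reaction was stopped with EDTA, and phosphorylation was read by HTRF with a Eu-anti-phospho antibody. IC50 values came from 11-point half-log titrations, typically from 10 μM.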

CDK1/CCNB1 = CDK1/CCNB1 (Homo sapiens, UniProt P06493); assay: CDK1 homogeneous time-resolved fluorescence (HTRF) kinase assay; settings: CDK1/CCNB
How it was run: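 Kinase activity is measured as Lance signal (665 nm, or 665/615 nm ratio) from europium-labelled anti-phospho-Thr37/46 antibody binding ULight-4E-BP1 peptide. Reactions contain 0.5 nM enzyme, 1 mM ATP, 1% DMSO and run 60 min at 23 °C before EDTA quench.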

CDK2/CCNE1 = CDK2/CCNE1 (Homo sapiens, UniProt P24941); assay: CDK2 homogeneous time-resolved fluorescence (HTRF) kinase assay; settings: CDK2/CCNE
How it was run: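 CDK2/CCNE1 (3 nM) preincubated 20 min at 23 °C with compound, then reacted 60 min at 23 °C with 1 mM ATP and 50 nM ULight-4E-BP1 (Thr37/46) peptide. Stopped with EDTA, phospho-peptide detected by Eu-anti-phospho antibody (665 nm or 665/615 ratio). IC50 from 11-point half-log titrations typically starting at 10 μM.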

[1] = >250 nM, 1 mM ATP, read-out: CDK6/CCND IC50, >250 nM
[2] = >250 nM, read-out: CDK4/CCND IC50, >250 nM
[3] = >250 nM, read-out: CDK1/CCNB IC50 >250 nM
[4] = <25 nM, read-out: CDK2/CCNE IC50, <25 nM
[5] = x = IC50 >250 nM, read-out: CDK6/CCND IC50 (>250 nM column)
[6] = x = IC50 >250 nM, read-out: CDK4/CCND IC50 (>250 nM column)
[7] = x = IC50 >250 nM, read-out: CDK1/CCNB IC50 (>250 nM column)
[8] = x = IC50 <25 nM, read-out: CDK2/CCNE IC50 (<25 nM)
[9] = 25-250 nM marked x, read-out: CDK6/CCND IC50 25-250 nM
[10] = 25-250 nM marked x, read-out: CDK4/CCND IC50 25-250 nM
[11] = 25-250 nM marked x, read-out: CDK1/CCNB IC50 25-250 nM
[12] = <25 nM, read-out: CDK2/CCNE IC50 <25 nM
[13] = 25-250 nM, 1 mM ATP, read-out: CDK6/CCND IC50, 25-250 nM
[14] = 25-250 nM, read-out: CDK4/CCND IC50, 25-250 nM
[15] = >250 nM marked x, read-out: CDK6/CCND IC50 >250 nM
[16] = >250 nM marked x, read-out: CDK4/CCND IC50 >250 nM
[17] = >250 nM marked x, read-out: CDK1/CCNB IC50 >250 nM
[18] = >250 nM marked x, read-out: CDK2/CCNE IC50 >250 nM
[19] = 25-250 nM, read-out: CDK2/CCNE IC50, 25-250 nM

CDK1/CCNB1, sequence (P06493 whole entry): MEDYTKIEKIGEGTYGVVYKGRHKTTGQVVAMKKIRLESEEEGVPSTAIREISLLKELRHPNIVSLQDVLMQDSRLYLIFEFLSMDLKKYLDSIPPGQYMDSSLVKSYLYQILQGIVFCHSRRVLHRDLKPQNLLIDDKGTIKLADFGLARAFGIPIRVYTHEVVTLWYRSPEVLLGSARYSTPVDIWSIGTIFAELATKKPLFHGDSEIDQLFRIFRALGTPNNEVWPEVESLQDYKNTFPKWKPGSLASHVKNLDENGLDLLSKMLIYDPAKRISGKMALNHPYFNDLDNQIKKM
CDK1/CCNB1, sequence (P14635 whole entry partner): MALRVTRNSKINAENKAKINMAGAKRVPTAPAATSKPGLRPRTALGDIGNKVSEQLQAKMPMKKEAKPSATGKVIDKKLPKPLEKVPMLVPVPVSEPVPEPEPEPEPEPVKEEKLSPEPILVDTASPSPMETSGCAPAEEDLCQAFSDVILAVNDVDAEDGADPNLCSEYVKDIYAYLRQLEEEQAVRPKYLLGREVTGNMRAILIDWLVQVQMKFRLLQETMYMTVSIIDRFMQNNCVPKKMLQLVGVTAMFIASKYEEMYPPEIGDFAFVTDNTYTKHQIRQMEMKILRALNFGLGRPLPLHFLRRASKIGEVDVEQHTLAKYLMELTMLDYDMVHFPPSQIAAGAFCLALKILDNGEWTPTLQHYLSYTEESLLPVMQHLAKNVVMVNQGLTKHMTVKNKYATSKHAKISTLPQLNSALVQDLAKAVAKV
CDK4/CCND3, sequence (P11802 whole entry): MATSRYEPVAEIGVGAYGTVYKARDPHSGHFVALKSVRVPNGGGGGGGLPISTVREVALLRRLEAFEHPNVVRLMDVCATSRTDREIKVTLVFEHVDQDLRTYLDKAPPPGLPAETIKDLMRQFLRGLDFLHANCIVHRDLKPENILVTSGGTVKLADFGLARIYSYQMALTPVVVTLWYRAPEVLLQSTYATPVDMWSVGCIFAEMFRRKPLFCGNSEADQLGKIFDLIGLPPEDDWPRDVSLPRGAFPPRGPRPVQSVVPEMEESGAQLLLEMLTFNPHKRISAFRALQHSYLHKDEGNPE
CDK4/CCND3, sequence (P30281 whole entry partner): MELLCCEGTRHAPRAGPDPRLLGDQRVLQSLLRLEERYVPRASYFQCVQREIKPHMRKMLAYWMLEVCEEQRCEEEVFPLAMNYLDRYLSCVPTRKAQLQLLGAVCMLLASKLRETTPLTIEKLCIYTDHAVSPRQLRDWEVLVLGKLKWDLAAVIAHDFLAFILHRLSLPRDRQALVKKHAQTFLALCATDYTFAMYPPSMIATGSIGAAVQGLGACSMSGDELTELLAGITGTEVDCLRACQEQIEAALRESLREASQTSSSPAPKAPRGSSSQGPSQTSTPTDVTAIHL
CDK6/CCND1, sequence (Q00534 whole entry): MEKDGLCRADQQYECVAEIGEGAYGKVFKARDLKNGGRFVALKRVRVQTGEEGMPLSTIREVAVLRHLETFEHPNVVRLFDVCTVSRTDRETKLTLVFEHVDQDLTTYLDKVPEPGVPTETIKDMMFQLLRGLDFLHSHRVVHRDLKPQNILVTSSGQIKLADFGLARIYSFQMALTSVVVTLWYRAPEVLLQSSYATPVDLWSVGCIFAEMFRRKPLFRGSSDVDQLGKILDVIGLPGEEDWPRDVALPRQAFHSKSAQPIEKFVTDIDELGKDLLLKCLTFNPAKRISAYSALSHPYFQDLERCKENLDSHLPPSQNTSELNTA
CDK6/CCND1, sequence (P24385 whole entry partner): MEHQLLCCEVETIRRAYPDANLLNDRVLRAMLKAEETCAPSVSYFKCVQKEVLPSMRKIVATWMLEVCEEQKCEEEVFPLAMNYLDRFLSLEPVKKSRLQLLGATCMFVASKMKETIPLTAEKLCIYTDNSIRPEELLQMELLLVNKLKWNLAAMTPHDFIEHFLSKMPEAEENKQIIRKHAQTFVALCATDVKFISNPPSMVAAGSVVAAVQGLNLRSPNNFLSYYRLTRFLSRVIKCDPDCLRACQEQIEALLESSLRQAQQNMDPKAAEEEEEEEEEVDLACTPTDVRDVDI

- IC50 (CDK6/CCND1; [5]): > 250 nM
- IC50 (CDK4/CCND3; [6]): > 250 nM
- IC50 (CDK1/CCNB1; [7]): > 250 nM
- IC50 (CDK2/CCNE1; [8]): < 25 nM
SMILES: CC1(C)C(=O)Nc2cc(C#Cc3nccc4cnc(Nc5ccc(S(C)(=O)=O)cc5)cc34)cnc21 [Example 436, 3,3-dimethyl-6-((7-((4-(methylsulfonyl)phenyl)amino)-2,6-naphthyridin-1-yl)ethynyl)-1,3-dihydro-2H-pyrrolo[3,2-b]pyridin-2-one]

- IC50 (CDK6/CCND1; x = IC50 25-250 nM, read-out: CDK6/CCND IC50 (25-250 nM)): 25 to 250 nM
- IC50 (CDK4/CCND3; [6]): > 250 nM
- IC50 (CDK1/CCNB1; [7]): > 250 nM
- IC50 (CDK2/CCNE1; [8]): < 25 nM
SMILES: Cc1c(-c2nccc3cnc(Nc4ccc(S(C)(=N)=O)cc4)cc23)ccc2nn(C)cc12 (single isomer, unassigned) [Example 545, (4-((5-(2,4-dimethyl-2H-indazol-5-yl)-2,6-naphthyridin-3-yl)amino)phenyl)(imino)(methyl)-λ^6-sulfanone]

- IC50 (CDK6/CCND1; [1]): > 250 nM
- IC50 (CDK4/CCND3; [2]): > 250 nM
- IC50 (CDK1/CCNB1; [3]): > 250 nM
- IC50 (CDK2/CCNE1; [4]): < 25 nM
SMILES: CC[C@@H](C)NS(=O)(=O)c1ccc(Nc2cc3c(-c4ccc5c(cnn5CC(C)(C)O)c4C)nccc3cn2)cc1 [Example 721, (R)-N-(sec-butyl)-4-((5-(1-(2-hydroxy-2-methylpropyl)-4-methyl-1H-indazol-5-yl)-2,6-naphthyridin-3-yl)amino)benzenesulfonamide]

- IC50 (CDK6/CCND1; [1]): > 250 nM
- IC50 (CDK4/CCND3; [2]): > 250 nM
- IC50 (CDK1/CCNB1; [3]): > 250 nM
- IC50 (CDK2/CCNE1; >250 nM, read-out: CDK2/CCNE IC50, >250 nM): > 250 nM
SMILES: Cc1nn(-c2ccccc2)c(C)c1S(=O)(=O)Nc1ccc(Nc2cc3c(-c4ccc5c(cnn5CC(C)(C)O)c4C)nccc3cn2)cc1 [Ex 826, N-(4-((5-(1-(2-hydroxy-2-methylpropyl)-4-methyl-1H-indazol-5-yl)-2,6-naphthyridin-3-yl)amino)phenyl)-3,5-dimethyl-1-phenyl-1H-pyrazole-4-sulfonamide]

- IC50 (CDK6/CCND1; [1]): > 250 nM
- IC50 (CDK4/CCND3; [2]): > 250 nM
- IC50 (CDK1/CCNB1; [3]): > 250 nM
- IC50 (CDK2/CCNE1; [19]): 25 to 250 nM
SMILES: Cc1c(-c2nccc3cnc(Nc4ccc(S(=O)(=O)N(C)c5ncccn5)cc4)cc23)ccc2c1cnn2CC(O)(C(F)(F)F)C(F)(F)F [Example 732, N-methyl-4-((5-(4-methyl-1-(3,3,3-trifluoro-2-hydroxy-2-(trifluoromethyl)propyl)-1H-indazol-5-yl)-2,6-naphthyridin-3-yl)amino)-N-(pyrimidin-2-yl)benzenesulfonamide]

- IC50 (CDK6/CCND1; [9]): 25 to 250 nM
- IC50 (CDK4/CCND3; [10]): 25 to 250 nM
- IC50 (CDK1/CCNB1; [11]): 25 to 250 nM
- IC50 (CDK2/CCNE1; [12]): < 25 nM
SMILES: CC(C)S(=N)(=O)c1ccc(Nc2cc3c(C#Cc4ccc5c(c4)NC(=O)C5(C)O)nccc3cn2)cc1 (single isomer, unassigned) [Example 279, 3-hydroxy-3-methyl-6-((7-((4-(propan-2-ylsulfonimidoyl)phenyl)amino)-2,6-naphthyridin-1-yl)ethynyl)indolin-2-one]

The next lines start with the compound.

SMILES: Cc1cnc(NS(=O)(=O)c2ccc(Nc3cc4c(-c5ccc6c(cnn6CC(O)(C(F)(F)F)C(F)(F)F)c5C)nccc4cn3)cc2)nc1N1CCOCC1 [Ex 706, 4-((5-(4-methyl-1-(3,3,3-trifluoro-2-hydroxy-2-(trifluoromethyl)propyl)-1H-indazol-5-yl)-2,6-naphthyridin-3-yl)amino)-N-(5-methyl-4-morpholinopyrimidin-2-yl)benzenesulfonamide]
- IC50 (CDK6/CCND1; [1]): > 250 nM
- IC50 (CDK4/CCND3; [2]): > 250 nM
- IC50 (CDK1/CCNB1; [3]): > 250 nM
- IC50 (CDK2/CCNE1; [4]): < 25 nM

SMILES: CS(=O)(=O)N1CCC(Nc2cc3c(N4CCCC(CO)C4)nccc3cn2)CC1 (racemic) [Ex 40, (1-(7-((1-(methylsulfonyl)piperidin-4-yl)amino)-2,6-naphthyridin-1-yl)piperidin-3-yl)methanol]
- IC50 (CDK6/CCND1; [9]): 25 to 250 nM
- IC50 (CDK4/CCND3; [10]): 25 to 250 nM
- IC50 (CDK1/CCNB1; [11]): 25 to 250 nM
- IC50 (CDK2/CCNE1; [12]): < 25 nM

SMILES: CNS(=N)(=O)c1ccc(Nc2cc3c(-c4ccc5c(cnn5CC(O)(C(F)(F)F)C(F)(F)F)c4C)nccc3cn2)cc1 (single isomer, unassigned) [Ex 683, N-methyl-4-((5-(4-methyl-1-(3,3,3-trifluoro-2-hydroxy-2-(trifluoromethyl)propyl)-1H-indazol-5-yl)-2,6-naphthyridin-3-yl)amino)benzenesulfonimidamide]
- IC50 (CDK6/CCND1; [13]): 25 to 250 nM
- IC50 (CDK4/CCND3; [14]): 25 to 250 nM
- IC50 (CDK1/CCNB1; [3]): > 250 nM
- IC50 (CDK2/CCNE1; [4]): < 25 nM

SMILES: Cc1ccc(NS(=O)(=O)c2ccc(Nc3cc4c(-c5ccc6c(cnn6CC(C)(C)O)c5C)nccc4cn3)cc2)nn1 [Ex 800, 4-((5-(1-(2-hydroxy-2-methylpropyl)-4-methyl-1H-indazol-5-yl)-2,6-naphthyridin-3-yl)amino)-N-(6-methylpyridazin-3-yl)benzenesulfonamide]
- IC50 (CDK6/CCND1; [13]): 25 to 250 nM
- IC50 (CDK4/CCND3; [14]): 25 to 250 nM
- IC50 (CDK1/CCNB1; 25-250 nM, read-out: CDK1/CCNB IC50, 25-250 nM): 25 to 250 nM
- IC50 (CDK2/CCNE1; [4]): < 25 nM

SMILES: COc1ccc(CN2CCC(c3nccc4cnc(Nc5ccc(S(C)(=O)=O)cc5)cc34)C2)cc1 (racemic) [Ex 231, 5-(1-(4-methoxybenzyl)pyrrolidin-3-yl)-N-(4-(methylsulfonyl)phenyl)-2,6-naphthyridin-3-amine]
- IC50 (CDK6/CCND1; [15]): > 250 nM
- IC50 (CDK4/CCND3; [16]): > 250 nM
- IC50 (CDK1/CCNB1; [17]): > 250 nM
- IC50 (CDK2/CCNE1; [18]): > 250 nM

SMILES: CS(=O)(=O)N1CCC(Nc2cc3c(-c4cccc(O)c4)nccc3cn2)CC1 [Ex 69, 3-(7-((1-(methylsulfonyl)piperidin-4-yl)amino)-2,6-naphthyridin-1-yl)phenol]
- IC50 (CDK6/CCND1; [9]): 25 to 250 nM
- IC50 (CDK4/CCND3; [10]): 25 to 250 nM
- IC50 (CDK1/CCNB1; [11]): 25 to 250 nM
- IC50 (CDK2/CCNE1; [12]): < 25 nM

SMILES: CS(=O)(=O)c1ccc(Nc2cc3c(ccnc3[C@H]3CC[C@H](C(=O)NC4CCOCC4)CC3)cn2)cc1 [Ex 226, (1r,4r)-4-(7-((4-(methylsulfonyl)phenyl)amino)-2,6-naphthyridin-1-yl)-N-(tetrahydro-2H-pyran-4-yl)cyclohexane-1-carboxamide]
- IC50 (CDK6/CCND1; [15]): > 250 nM
- IC50 (CDK4/CCND3; [16]): > 250 nM
- IC50 (CDK1/CCNB1; [17]): > 250 nM
- IC50 (CDK2/CCNE1; [18]): > 250 nM

SMILES: COc1cc(NS(=O)(=O)c2ccc(Nc3cc4c(-c5ccc6c(cnn6CC(O)(C(F)(F)F)C(F)(F)F)c5C)nccc4cn3)cc2)cc(OC)c1 [Ex 739, N-(3,5-dimethoxyphenyl)-4-((5-(4-methyl-1-(3,3,3-trifluoro-2-hydroxy-2-(trifluoromethyl)propyl)-1H-indazol-5-yl)-2,6-naphthyridin-3-yl)amino)benzenesulfonamide]
- IC50 (CDK6/CCND1; [1]): > 250 nM
- IC50 (CDK4/CCND3; [2]): > 250 nM
- IC50 (CDK1/CCNB1; [3]): > 250 nM
- IC50 (CDK2/CCNE1; [19]): 25 to 250 nM

SMILES: CS(=O)(=O)c1ccc(Nc2cc3c(C#Cc4ccc(C(F)(F)F)cc4N)nccc3cn2)cc1 [Ex 563, 5-((2-amino-4-(trifluoromethyl)phenyl)ethynyl)-N-(4-(methylsulfonyl)phenyl)-2,6-naphthyridin-3-amine]
- IC50 (CDK6/CCND1; [5]): > 250 nM
- IC50 (CDK4/CCND3; [6]): > 250 nM
- IC50 (CDK1/CCNB1; [7]): > 250 nM
- IC50 (CDK2/CCNE1; x = IC50 25-250 nM, read-out: CDK2/CCNE IC50 (25-250 nM)): 25 to 250 nM

SMILES: CS(=O)(=O)N1CCC(Nc2cc3c(N4CCC(CO)CC4)nccc3cn2)CC1 [Ex 41, (1-(7-((1-(methylsulfonyl)piperidin-4-yl)amino)-2,6-naphthyridin-1-yl)piperidin-4-yl)methanol]
- IC50 (CDK6/CCND1; <25 nM, read-out: CDK6/CCND IC50 <25 nM): < 25 nM
- IC50 (CDK4/CCND3; <25 nM, read-out: CDK4/CCND IC50 <25 nM): < 25 nM
- IC50 (CDK1/CCNB1; [17]): > 250 nM
- IC50 (CDK2/CCNE1; [12]): < 25 nM
